Values after ≈ are worked out from the molar mass of the structure shown. Structures can show the parent of a compound that is named as a salt.
How the values were obtained:
[1] = tested on: Streptococcus pneumoniae, A9585; experiment: In vitro antibacterial activity (MIC), serial 2-fold dilution; format: cell-based; details: Streptococcus pneumoniae A9585; Mueller-Hinton; 37°C, 17 h; read-out: Antibacterial Activity MIC S. pn.
Description: (§1) In vitro antibacterial activity was determined by serial 2-fold dilution of the compound in Mueller-Hinton agar and inoculation of the agar surface or broth with an appropriately diluted 18-24 h broth culture.

[2] = tested on: Pseudomonas aeruginosa, A9843; experiment: as above; format: cell-based; details: Pseudomonas aeruginosa A9843; Mueller-Hinton; 37°C, 17 h; read-out: Antibacterial Activity MIC P. aer.
Description: as §1

Escherichia coli, A15119 = experiment: as above; format: cell-based; details: Escherichia coli A15119; Mueller-Hinton; 37°C, 17 h; read-out: Antibacterial Activity MIC E. coli
Description: as §1

[3] = Chemical stability in aqueous solution (half-life); format: physicochemical; details: 37°C, 10^-4 M, pH 7.4, aqueous solution; read-out: Half-life (T 1/2) (converted)
Description: These values were determined by the method of Woodward et al, J. Am. Chem. Soc., 102, 2042 (1980)

MIC [1] [µg/mL]	MIC [2] [µg/mL]	MIC (Escherichia coli, A15119) [µg/mL]	half-life at 100 µM [3] [h]	SMILES
0.008 (≈ 0.0202 µM)	63 (≈ 159 µM)	0.03 (≈ 0.0759 µM)	33.5	C[C@@H](O)[C@H]1C(=O)N2C(C(=O)O)=C(SCCC#N)[C@H](CCN3CCOCC3)[C@H]12 [Example 49, (4R,5S,6S)-3-[(2-Cyanoethyl)thio]-6-[(1'R)-1'-hydroxyethyl]--4-[2"-(N-morpholino)ethyl]-7-oxo-1-azabicyclo-[3.2.0]hept-2-ene-2-carboxylic acid]
0.008 (≈ 0.0211 µM)	1 (≈ 2.64 µM)	0.016 (≈ 0.0422 µM)	18	C[C@@H](O)[C@H]1C(=O)N2C(C(=O)O)=C(SCCC#N)[C@H](CCN3CCCC3)[C@H]12 [Example 63, (4R,5S,6S)-3-[(2-cyanoethyl)thio]-6-[(1'R)-1'-hydroxyethyl]-4-[2"-(1-pyrrolidinyl)-ethyl]-7-oxo-1-azabicyclo[3.2.0]hept-2-ene-2-carboxylic acid]
0.03 (≈ 0.0816 µM)	0.25 (≈ 0.68 µM)	0.008 (≈ 0.0218 µM)	37	C[C@@H](O)[C@H]1C(=O)N2C(C(=O)O)=C(SCCC#N)[C@H](CCNC(=N)N)[C@H]12 [Example 73, (4R,5S,6S)-3-[(2-Cyanoethyl)thio]-4-(2"-guanidinoethyl)-6-[(1'R)-1'-hydroxyethyl]-7-oxo-1-azabicyclo[3.2.0]-hept-2-ene-2-carboxylic acid]
0.25 (≈ 0.582 µM)	2 (≈ 4.66 µM)	0.008 (≈ 0.0186 µM)	180	C[C@@H](O)[C@H]1C(=O)N2C(C(=O)O)=C(SCCOC(N)=O)[C@H](CCCCNC(=N)N)[C@H]12 [Example 100, (4R.5S,6S)-3-[(2-Carbamoyloxyethyl)thio)-4-(4"-guanidinobutyl)-6-[(1'R)-1'-hydroxyethyl]-7-oxo-1-azabicyclo-[3.2.0]-hept-2-ene-2-carboxylic acid]
0.03	0.25	0.13	23	C[C@@H](O)[C@H]1C(=O)N2C(C(=O)O)=C(SCCN3CCCC3)[C@H](CCCN)[C@H]12 [Example 120, (4R,5S,6S)-4-(3"-Aminopropyl)-6-[(1'R)-1'-hydroxyethyl]-3-[2-(1-pyrrolidinyl)ethylthio]-7-oxo-1-azabicyclo-[3.2.0]-hept-2-ene-2-carboxylic acid, acetic acid salt]
0.06	1	0.13	31	C[C@@H](O)[C@H]1C(=O)N2C(C(=O)O)=C(SCCN3CCCC3)[C@H](CCCNC(=N)N)[C@H]12 [Example 127, (4R,5S,6S)-4-(3"-Guanidinopropyl)-6-[(1'R)-1'-hydroxyethyl]3-([2-(1-pyrrolidinyl)ethyllthio)-7-oxo-1-azabicyclo[3.2.0]-hept-2-ene-2-carboxylic acid, acetic acid salt]
0.03	0.06	0.015	37	C[C@@H](O)[C@H]1C(=O)N2C(C(=O)O)=C(SCCNC(=N)N)[C@H](CCNC(=N)N)[C@H]12 [Example 135, (4R,5S,6S)-4-(2"-Guanidinoethyl)-3-[(2-guanidinoethyl)-thio]-6-[(1'R)-1'-hydroxyethyl]-7-oxo-1-azabicyclo-[3.2.0]hept-2-ene-2-carboxylic acid, acetic acid salt]

The next lines start with the compound.

SMILES	MIC [1] [µg/mL]	MIC [2] [µg/mL]	MIC (Escherichia coli, A15119) [µg/mL]	half-life at 100 µM [3] [h]
C[C@@H](O)[C@H]1C(=O)N2C(C(=O)O)=C(SCCC#N)[C@H](CCCN)[C@H]12 [Example 41, (4R-5S,6S)-4-(3"-Aminopropyl)-3-[(2-cyanoethy!)thio]-6-[(1'R)-1'-hydroxyethyl]-7-oxo-1-azabicyclo[3.2.0]hept-2-ene-2-carboxylic acid]	0.25 (≈ 0.737 µM)	0.5 (≈ 1.47 µM)	0.008 (≈ 0.0236 µM)	70
C[C@@H](O)[C@H]1C(=O)N2C(C(=O)O)=C(SCc3ccncc3)[C@H](CCCN)[C@H]12 [Example 44]	0.03 (≈ 0.0795 µM)	8 (≈ 21.2 µM)	0.03 (≈ 0.0795 µM)	89
C[C@@H](O)[C@H]1C(=O)N2C(C(=O)O)=C(SCCCC#N)[C@H](CCN)[C@H]12 [Example 47, (4R,5S,6S)-4-(2"-Aminoethyl)-3-[(3-cyanopropyl)thio]-6-[(1'R)-l'-hydroxyethyl]-7-oxo-1-azabicyclo[3.2.0]hept-2-ene-2-carboxylic acid]	0.5 (≈ 1.47 µM)	1 (≈ 2.95 µM)	0.03 (≈ 0.0884 µM)	2.5
C[C@@H](O)[C@H]1C(=O)N2C(C(=O)O)=C(SCCO)[C@H](CCCCN(C)C)[C@H]12 [Example 91, (4R,5S,6S)-4-(4"-N,N-Dimethylaminobutyl)-6-[(1'R)-1'-hydroxyethyl]-3-[(2-hydroxyethyl)thio]-7-oxo-1-azabicyclo-[3.2.0]hept-2-ene-2-carboxylic acid]	0.5 (≈ 1.34 µM)	4 (≈ 10.7 µM)	0.016 (≈ 0.043 µM)	150
CSC1=C(C(=O)O)N2C(=O)[C@H]([C@@H](C)O)[C@H]2[C@H]1CCCCN [Example 92, (4R,5S,6S)-4-(4"-Aminobutyl)-6-(1'R)-1'-hydroxyethyl-3-methylthio-7-oxo-1-azabicyclo[3.2.0]hept-2-ene-2-carboxylic acid]	2 (≈ 6.36 µM)	2 (≈ 6.36 µM)	0.06 (≈ 0.191 µM)	247
C[C@@H](O)[C@H]1C(=O)N2C(C(=O)O)=C(SCc3cn(C)nn3)[C@H](CCCNC=N)[C@H]12 [Example 94, (4R.5S,6S)-4-[3"-(N-Formimidoyi)aminopropyi]-6-[(1'R)-1'-hydroxyethyl]-3-[(1-methyl-1,2,3-triazol-4-yl)-methylthio]-7-oxo-1-azabicyclo[3.2.0]hept-ene-2-carboxylic acid]	0.06 (≈ 0.147 µM)	8 (≈ 19.6 µM)	0.008 (≈ 0.0196 µM)	88
C[C@@H](O)[C@H]1C(=O)N2C(C(=O)O)=C(SCCN)[C@H](CCCN)[C@H]12 [Example 117, (4R,5S,6S)-4-(3"-Aminopropyl)-3-[(2-aminoethyl)thio]-6-[(1'R)-1'-hydroxyethyl]-7-oxo-1-azabicyclo[3.2.0]hept-2-ene-2-carboxylic acid, acetic acid_salt]	0.13	0.25	0.13	33
C[C@@H](O)[C@H]1C(=O)N2C(C(=O)O)=C(SCCC#N)[C@H](CCCCCN)[C@H]12 [Example 121]	0.13 (≈ 0.354 µM)	1 (≈ 2.72 µM)	0.004 (≈ 0.0109 µM)	136
C[C@@H](O)[C@H]1C(=O)N2C(C(=O)O)=C(SCCC#N)[C@H](CCN(C)CCC#N)[C@H]12 [Example 124, (4R,5S,6S)-3-[(2-Cyanoethyl)thio]-4-[2"-[N,N-(2-cyanoethyl)methylamino]ethy!]-6-[(1'R)-1'-hydroxyethyl]-7-oxo-1-azabicyclo[3.2.0]hept-2-ene-2-carboxylic acid]	0.016 (≈ 0.0408 µM)	2 (≈ 5.1 µM)	0.03 (≈ 0.0764 µM)	21
C[C@@H](O)[C@H]1C(=O)N2C(C(=O)O)=C(SCCC#N)[C@H](CCN3CCN(C)CC3)[C@H]12 [Example 126, (4R,5S,6S)-3-[(2-Cyanoethyl)thio]-6-[(1'R)-1'-hydroxyethyl]-4-[2"(4-methylpiperazine-1-yl)ethyl]-7-oxo-1-azabicyclo[3.2.0]hept-2-ene-2-carboxylic acid]	0.016 (≈ 0.0392 µM)	2 (≈ 4.9 µM)	0.008 (≈ 0.0196 µM)	47
C[C@@H](O)[C@H]1C(=O)N2C(C(=O)O)=C(SCC(=N)N(C)C)[C@H](CCCN)[C@H]12 [Example 130, (4R,5S,6S)-4-(3"-Aminopropyl)-3-[(N,N-dimethylamidinomethyl]thio]-6-[(1'R)-1'-hyroxyethyl]-7-oxo-1-azabicyclo[3.2.0]hept-2-ene-2-carboxylic acid, acetic acid salt]	0.13	0.06	0.13	16
C[C@@H](O)[C@H]1C(=O)N2C(C(=O)O)=C(SCCC#N)[C@H](CCSCCN)[C@H]12 [Example 131, (4R,5S,6S)-4-(2"-(2-Aminoethylthio)ethyl]-3-[(2-cyanoethylthio]-6-[(1'R)-1'-hydroxyethy)]-7-oxo-1-azabicyclo-[3.2.0]-hept-2-ene-2-carboxylic acid]	0.25 (≈ 0.648 µM)	2 (≈ 5.19 µM)	0.13 (≈ 0.337 µM)	46
C[C@@H](O)[C@H]1C(=O)N2C(C(=O)[O-])=C(SCCC#N)[C@H](CC[n+]3ccccc3)[C@H]12 [Example 136, (4R,5S,6S)-3-[(2-Cyanoethyl)thio]-6-[(1'R)-1'-hydroxyethyl]-4-[2"-(1-pyridinium)ethyl]7-oxo-1-azabicyclo-[3.2.0]hept-2-ene-2-carboxylate]	0.015 (≈ 0.0387 µM)	4 (≈ 10.3 µM)	0.007 (≈ 0.0181 µM)	17
CNCCC[C@H]1C(SCCC#N)=C(C(=O)O)N2C(=O)[C@H]([C@@H](C)O)[C@@H]12 [Example 154, (4R,5S,6S)-3-[(2-Cyanoethyl]thio]-6-[(1'R]-1'-hydroxyethyl]-4-(3"-N-methylaminopropyl)-7-oxo-1-azabicyclo[3.2.0]hept-2-ene-2-carboxylic acid]	0.5 (≈ 1.41 µM)	1 (≈ 2.83 µM)	0.25 (≈ 0.707 µM)	79

Source: patent EP0433759A1, “4-Substituted alkyl carbapenem antibiotics” (Bristol-Myers Squibb Company, priority 1989, dated 1991)
